We go through 12 molecules from ChEMBL document CHEMBL1201862, “PubChem BioAssay data set” (2004).

What all share (assay): NCI-60 cell line screen, 48 h
Experiment [1] concerns HCT-116.
Experiment [2] has as its system NCI-H522.
For experiment [3], the system named is SN12C.
Experiment [4] concerns SF-295.
The subject of experiment [5] is KM-20L2.
The test system of experiment [6] is HT-29.
The test system of experiment [7] is UO-31.
Experiment [8] deals with Malme-3M.
Experiment [9] deals with OVCAR-4.
Experiment [10] relates to SNB-19.
Experiment [11] has as its system HCC 2998.
Experiment [12] concerns UACC-62.
Experiment [13] deals with ACHN.
Experiment [14] relates to A549.
Experiment [15] has as its system NCI-H460.
The subject of experiment [16] is LXFL 529.
Experiment [17] concerns M14.
Experiment [18] has as its system SK-MEL-2.

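1) Cells in 96-well plates. 2) Compound, 48 h, 5 concentrations. 3) Linear interpolation between surrounding doses. 4) Unreached endpoint = highest concentration. GI50 marks 50% less growth.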 Activity calls are given as the source filed them. Cut-off read from the data, not from the text of the source: active = GI50 up to about 1.1 µM and inactive = higher.

As for `Cc1cccc(Cl)c1NC(=O)c1cccc([N+](=O)[O-])c1O`, the GI50 in experiment [1] was 43.3 µM (inactive); in experiment [2] it was 20.4 µM (inactive); in experiment [3], 31.9 µM (inactive); in [4], 28.9 µM (inactive); in experiment [5], 41.4 µM (inactive); in experiment [6] it was 41.8 µM (inactive). Moreover, the GI50 in experiment [7] is 19.8 µM (inactive); in experiment [8] it was 27 µM (inactive); in experiment [9], 24.5 µM (inactive); in [10], 38.5 µM (inactive); in experiment [11], 31.7 µM (inactive); in experiment [12], 25.4 µM (inactive). In addition, the GI50 in [13] was 31.9 µM (inactive); in experiment [14] it was 35.7 µM (inactive); in [15], 29 µM (inactive); in [16], 50.6 µM (inactive); in [17], 43.8 µM (inactive).
With `O=c1cccccc1NCCNc1cccccc1=O`, the GI50 in experiment [1] is > 100 µM (inactive); in [2] it was > 100 µM (inactive); in experiment [3] it was 13.6 µM (inactive); in [4], > 100 µM (inactive); in [5], > 100 µM (inactive); in experiment [6] it was > 100 µM (inactive). Further, the GI50 in [7] is > 100 µM (inactive); in [8], 13.9 µM (inactive); in experiment [9], > 100 µM (inactive); in experiment [10], > 100 µM (inactive); in [18], > 100 µM (inactive); in [12], > 100 µM (inactive). The GI50 in experiment [13], in experiment [14], in [15], in experiment [16] and in experiment [17] was > 100 µM (inactive) throughout.
`CCOC(=O)NC(=O)c1cn(C2OC(COC(=O)CCCCCCCCC(=O)OCC3OC(n4cc(C(=O)NC(=O)OCC)c(=O)[nH]c4=O)C4OC(C)(C)OC34)C3OC(C)(C)OC32)c(=O)[nH]c1=O` (stereo unspecified): the GI50 in [1] was 39.6 µM (inactive); in [3] it was 83.8 µM (inactive); in [4], > 100 µM (inactive); in [5] it was 67.6 µM (inactive); in [6], 79.8 µM (inactive); in [7], > 100 µM (inactive). Besides, the GI50 was > 100 µM (inactive) in [8]; 57 µM (inactive) in [9]; 51.6 µM (inactive) in [10]; 52.1 µM (inactive) in [18]; 57.3 µM (inactive) in experiment [11]; > 100 µM (inactive) in experiment [12]. Also, the GI50 in [13] is > 100 µM (inactive); in experiment [14], 90.4 µM (inactive); in [15], > 100 µM (inactive); in [16], 88.5 µM (inactive); in experiment [17], 63.4 µM (inactive).
With `COc1cc(C(C#N)NNC(=O)c2ccccc2O)ccc1O` (stereo unspecified), the GI50 in [1] was 2.26 µM (inactive); in [2], 3.14 µM (inactive); in [3], 7.03 µM (inactive); in [4] it was 3.28 µM (inactive); in experiment [5] it was 29.4 µM (inactive); in experiment [6], 23.4 µM (inactive). In addition, the GI50 is 0.701 µM (active) in experiment [7]; 9.4 µM (inactive) in experiment [8]; 5.33 µM (inactive) in experiment [9]; 2.48 µM (inactive) in [18]; 0.887 µM (active) in experiment [12]; 0.873 µM (active) in experiment [13]. In addition, the GI50 in [14] is 0.662 µM (active); in [15] it was 1.47 µM (inactive); in experiment [16], 1.6 µM (inactive); in experiment [17] it was 2.79 µM (inactive).
Consider `Cc1c(O)c(O)cc[n+]1C1OC(CO)C(O)C1O` (stereo unspecified), for which the GI50 in experiment [1], in experiment [2], in experiment [3], in experiment [5], in [6] and in experiment [7] was > 100 µM (inactive) in each case. The GI50 in experiment [8], in experiment [9], in experiment [10], in experiment [18], in [11] and in experiment [12] was > 100 µM (inactive) throughout. The GI50 in experiment [13] was > 100 µM (inactive); in experiment [14], > 100 µM (inactive); in experiment [15], > 100 µM (inactive); in experiment [16], 33.1 µM (inactive); in experiment [17], > 100 µM (inactive).
As for `CCC12C=CCN3CCC4(C(=C(C(=O)OC)C1)Nc1ccccc14)[C@H]32` (stereo partly specified), the GI50 is 30.8 µM (inactive) in experiment [1]; 22.1 µM (inactive) in [2]; 28.3 µM (inactive) in experiment [4]; 19.8 µM (inactive) in experiment [5]; 22.6 µM (inactive) in [6]; 65.2 µM (inactive) in [7]. Further, the GI50 in [8] was 42.4 µM (inactive); in experiment [9], 29.4 µM (inactive); in experiment [10], 26.6 µM (inactive); in experiment [18] it was 19.1 µM (inactive); in experiment [11], 33.3 µM (inactive); in [12], 21.3 µM (inactive). For the same molecule, the GI50 in experiment [13] is 64 µM (inactive); in experiment [14] it was 34.7 µM (inactive); in [15], 18.8 µM (inactive); in [16] it was 31.6 µM (inactive); in experiment [17] it was 21.6 µM (inactive).
Consider `Cc1cccc(NC(=O)C(=O)C(C(=O)c2ccc3ccccc3c2)C2OC(=O)c3ccccc32)c1C` (stereo unspecified), for which the GI50 in experiment [1] is 9.68 µM (inactive); in [2], 14.1 µM (inactive); in [3], 15.9 µM (inactive); in experiment [5] it was 33 µM (inactive); in experiment [6], 28.1 µM (inactive); in experiment [7] it was 14.5 µM (inactive). For the same molecule, the GI50 is 6.05 µM (inactive) in [8]; 10.9 µM (inactive) in experiment [9]; 5.4 µM (inactive) in experiment [10]; 13.2 µM (inactive) in [18]; 6.03 µM (inactive) in [11]; 10.4 µM (inactive) in experiment [12]. Moreover, the GI50 in experiment [13] was 28.1 µM (inactive); in experiment [14], 19.1 µM (inactive); in [15], 9.16 µM (inactive); in [16], 9.55 µM (inactive); in [17] it was 14.4 µM (inactive).
On to `CCNC1C2(CCCCC2)NC(=O)C12CCCCC2` (stereo unspecified), for which the GI50 in [1], in experiment [4], in experiment [5], in experiment [6], in experiment [7] and in experiment [8] was > 100 µM (inactive) throughout. Also, the GI50 in experiment [9], in experiment [18], in experiment [11], in experiment [12], in experiment [13] and in experiment [14] was > 100 µM (inactive) throughout. For the same molecule, the GI50 in experiment [15], in experiment [16] and in [17] was > 100 µM (inactive) throughout.
With `CCOC(=O)NC(=O)c1cn(CCOC(=O)CCCCCCCCC(=O)OCCn2cc(C(=O)NC(=O)OCC)c(=O)[nH]c2=O)c(=O)[nH]c1=O`, the GI50 in experiment [1], in [3], in [4], in experiment [5], in experiment [6] and in experiment [7] was > 100 µM (inactive) throughout. In addition, the GI50 in experiment [8], in experiment [9], in experiment [10], in [18], in experiment [11] and in [12] was > 100 µM (inactive) each time. Besides, the GI50 in experiment [13], in [14], in experiment [15], in [16] and in experiment [17] was > 100 µM (inactive) each time.
As to `Cc1cc(C)n(-c2ccnc3cc(Cl)ccc23)n1`, the GI50 in experiment [1] was > 100 µM (inactive); in experiment [3], > 100 µM (inactive); in experiment [4] it was > 100 µM (inactive); in experiment [5] it was > 100 µM (inactive); in experiment [6] it was > 100 µM (inactive); in experiment [7], 91.6 µM (inactive). The GI50 in [8], in experiment [9], in experiment [10], in experiment [18], in experiment [11] and in experiment [12] was > 100 µM (inactive) each time. Besides, the GI50 in [13], in experiment [14], in experiment [15], in experiment [16] and in [17] was > 100 µM (inactive) throughout.
Regarding `C/N=c1\ss/c(=N\C(=S)N(C)C)n1C`, the GI50 in experiment [1], in [3], in experiment [4], in experiment [5], in experiment [6] and in [7] was > 100 µM (inactive) each time. Besides, the GI50 in experiment [8], in experiment [9], in experiment [10], in [18], in experiment [11] and in experiment [12] was > 100 µM (inactive) in each case. Also, the GI50 in [13], in experiment [14], in experiment [15], in experiment [16] and in [17] was > 100 µM (inactive) throughout.
Turning to `OCc1ccc(C2CC(c3ccco3)=NN2c2ccccc2)o1` (stereo unspecified), the GI50 in [1], in experiment [2], in [3], in experiment [4], in [5] and in [6] was > 100 µM (inactive) throughout. In addition, the GI50 in experiment [7], in [8], in experiment [9], in experiment [10], in [18] and in experiment [12] was > 100 µM (inactive) in each case. Moreover, the GI50 in experiment [13], in experiment [14], in [15], in experiment [16] and in experiment [17] was > 100 µM (inactive) throughout.
